A word on the bioavailability: it is dose-corrected exposure relative to a reference, in per cent. For orientation: Cmax means the peak of the concentration-time curve. As a reminder, the Tmax is the time at which the peak concentration occurs. Usually EC50 stands for the concentration needed to bring the measured effect to its halfway point. Read a low EC50 as an effect from little substance. In general, Emax refers to the greatest response seen or fitted, relative to the assay's reference. By solubility is commonly meant how much of the substance goes into solution per volume. The half-life is the time needed for the level to fall by half in the phase considered. A high value points to slow loss.

The nature of one data set: in vivo. Further details: species or system Sprague Dawley rats. The note with it: Sprague Dawley, rat; for bioavailability / Cmax / Tmax: sc; for Cmax / Tmax: 3 mg/kg. The procedure:
Prior to the testing of a peptide batch, its purity (HPLC-UV) was determined. Dose was corrected for presence of salts, solvent and purity. Bioanalytical screening method for quantification of peptides in rat: Sprague Dawley rats were dosed with study peptide at a dose of 1 mg/kg intravenously (i.v.) or 3 mg/kg subcutaneously (s.c.) as a solution in PBS (0.2 mg/ml and 0.6 mg/ml respectively). Blood samples were collected after: 0.083, 0.25, 0.5, 1, 2, 4, 8, 24, 48 and 72 h (i.v. route) and 0.25, 0.5, 1, 2, 4, 6, 8, 10, 24, 48 and 72 h (s.c route) post application. Plasma samples were analyzed after protein precipitation via liquid chromatography mass spectrometry (LC/MS). PK parameters and half-life were calculated using Phoenix 64 (WinNonlin 6.4)-Pharsight (Certara™) (non-compartment model). Values below the limit of quantification (BLQ) were replaced by zero for subsequent calculations and PK analysis. T½: in-vivo half-life, time required for test compound plasma concentration to be divided by two during the PK experiment. C0: Extrapolated test compound plasma concentration at t=0 time point (i.v. route). Cmax: maximal test compound plasma concentration at the indicated time point (s.c. route). Tmax: Time point where Cmax was attained. F %: s.c. vs i.v. bioavailability, dose-corrected area under curve (AUC) s.c. route divided by AUC i.v.

In the next data set the target is T1, RXFP1 (Homo sapiens, UniProt Q9HBX9).
T1 construct: OVCAR5 cells expressing endogenous RXFP1; endogenous in cells; host or cells: OVCAR5
T1 sequence (Q9HBX9 1-757): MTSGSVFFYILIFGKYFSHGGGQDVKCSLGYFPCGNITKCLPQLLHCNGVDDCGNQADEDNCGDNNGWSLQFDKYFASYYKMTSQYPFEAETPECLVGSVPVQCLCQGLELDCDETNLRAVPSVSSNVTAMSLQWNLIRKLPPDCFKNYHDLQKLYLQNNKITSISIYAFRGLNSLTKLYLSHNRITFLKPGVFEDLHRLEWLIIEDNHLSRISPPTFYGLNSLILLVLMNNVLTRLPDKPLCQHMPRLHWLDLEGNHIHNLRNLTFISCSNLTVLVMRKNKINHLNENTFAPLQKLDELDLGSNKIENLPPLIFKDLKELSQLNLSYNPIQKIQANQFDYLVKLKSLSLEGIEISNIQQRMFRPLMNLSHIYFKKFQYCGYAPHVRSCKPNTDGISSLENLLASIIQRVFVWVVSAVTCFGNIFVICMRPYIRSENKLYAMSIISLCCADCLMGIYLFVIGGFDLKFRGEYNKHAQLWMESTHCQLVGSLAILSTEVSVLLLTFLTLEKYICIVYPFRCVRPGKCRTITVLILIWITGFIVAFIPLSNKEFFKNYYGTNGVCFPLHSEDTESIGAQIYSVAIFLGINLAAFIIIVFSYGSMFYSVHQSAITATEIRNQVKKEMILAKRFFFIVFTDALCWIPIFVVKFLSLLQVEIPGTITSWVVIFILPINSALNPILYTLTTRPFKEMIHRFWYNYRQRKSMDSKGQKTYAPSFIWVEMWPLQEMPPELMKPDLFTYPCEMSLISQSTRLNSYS
The experiment in a line: OVCAR5 cAMP assay (HTRF). It is filed as cell-based. The note with it: for EC50: OVCAR 5 cells expressing endogenous RXFP1, cAMP readout; for Emax: OVCAR 5 cells, maximal cAMP relative to H2-relaxin. The gist of the method:
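Peptide agonism measured as intracellular cAMP (HTRF) after 30 min at 37° C in serum-free medium, following 40 min 1 mM IBMX preincubation of OVCAR5 cells. Nonlinear regression gave EC50; Emax % = 100 × compound maximal cAMP / H2-relaxin maximal cAMP.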
For orientation: Changes in cAMP serve as a functional read-out for many G protein-coupled receptors.

The nature of data set [1]: Solubility testing in buffer. It is filed as physicochemical. To be noted: target solubility 10.0 mg/ml.
The mark [2] stands for this setting: acetate buffer 50 mM pH 4.5, read-out: Solubility Acetate buffer pH 4.5.
Where [3] appears, read: phosphate buffer 50 mM pH 7.4, read-out: Solubility phosphate buffer pH 7.4.

≈ marks a conversion by molar mass, not a printed value. Like-named read-outs stand apart in the source and are kept apart here. Starred links: 1 amine or outer side, 2 acyl side, 3 side chain; linkers in the order of their positions; H or OH if unused. Non-standard residues stand in square brackets, D forms with d. Residues, ends and D or L forms follow the SMILES beside them. Groups on a side chain read outwards from the residue. *: point of attachment. X1 = CCCCCCCCCCCCCCCC(=O)N[C@@H](CCC(=O)N[C@@H](CCC(=O)N[C@@H](CCC(=O)NCCCOCCOCCOCCCNC(=O)CCC(=O)NCCCOCCOCCOCCCNC(=O)CCC(=O)NCCCOCCOCCOCCCN*)C(=O)O)C(=O)O)C(=O)O; X2 = CCCCCCCCCCCCCCCC(=O)N[C@@H](CCC(=O)N[C@@H](CCC(=O)N[C@@H](CCC(=O)NCCCOCCOCCOCCCNC(=O)CCC(=O)NCCCOCCOCCOCCCN*)C(=O)O)C(=O)O)C(=O)O; Suc = O=C(CCC(=O)[*:2])[*:1]; αMeK = C[C@](N)(CCCCN)C(=O)O; Aib = CC(C)(N)C(=O)O

As to `CCCCCCCCCCCCCCCC(=O)N[C@@H](CCC(=O)N[C@@H](CCC(=O)N[C@@H](CCC(=O)NCCCOCCOCCOCCCNC(=O)CCC(=O)NCCCOCCOCCOCCCNC(=O)CCC(=O)NCCCOCCOCCOCCCNC(=O)CCC(=O)NCCCC[C@H](NC(=O)CNC(=O)[C@H](CCC(=O)O)NC(=O)C(C)(C)NC(=O)C(C)(C)NC(=O)[C@@H](NC(=O)[C@H](CCCCNC(C)=O)NC(=O)[C@H](C)NC(=O)[C@H](CCCNC(=N)N)NC(=O)[C@@H](NC(=O)[C@H](CCCCN)NC(=O)[C@H](CCC(=O)O)NC(=O)[C@H](CCCNC(=N)N)NC(=O)CNC(=O)[C@H](CCC(=O)O)NC(=O)[C@H](CC(C)C)NC(C)=O)C(C)C)[C@@H](C)CC)C(=O)N[C@@H](CO)C(=O)N[C@H](C(=O)N[C@@H](Cc1ccccc1)C(=O)N[C@@H](CO)C(=O)N[C@@](C)(CCCCN)C(=O)N[C@@H](CCCNC(=N)N)C(=O)N[C@@H](C)C(=O)N[C@@H](CCCCNC(C)=O)C(N)=O)[C@@H](C)O)C(=O)O)C(=O)O)C(=O)O` [compound 3] (Ac-LEGREKVRAK(Ac)I[Aib][Aib]EGK([Suc-X1])STFS[αMeK]RAK(Ac)-NH2), in “in vivo” (iv, 1 mg/kg), the C0 is 3200 nM and the “T½ (h), in-vivo half-life” value came out at 7.8 h. Besides, in the data set “in vivo”, the bioavailability worked out at 83%, the concentration peaked (Cmax) at 2300 nM and the Tmax stood at 8 h. For the same molecule, on RXFP1, the EC50 was found to be 0.34 nM and the Emax stood at 97%. Besides, in data set [1] (setting [2]), the solubility amounted to 11.1 mg/mL (≈ 2550 µM). In data set [1] (setting [3]), the solubility is 11.5 mg/mL (≈ 2640 µM).

Turning to `CCCCCCCCCCCCCCCC(=O)N[C@@H](CCC(=O)N[C@@H](CCC(=O)N[C@@H](CCC(=O)NCCCOCCOCCOCCCNC(=O)CCC(=O)NCCCOCCOCCOCCCNC(=O)CCC(=O)NCCCC[C@H](NC(=O)CNC(=O)[C@H](CCC(=O)O)NC(=O)C(C)(C)NC(=O)C(C)(C)NC(=O)[C@@H](NC(=O)[C@H](CCCCNC(C)=O)NC(=O)[C@H](C)NC(=O)[C@H](CCCNC(=N)N)NC(=O)[C@@H](NC(=O)[C@H](CCCCN)NC(=O)[C@H](CCC(=O)O)NC(=O)[C@H](CCCNC(=N)N)NC(=O)CNC(=O)[C@H](CCC(=O)O)NC(=O)[C@H](CC(C)C)NC(C)=O)C(C)C)[C@@H](C)CC)C(=O)N[C@@H](CO)C(=O)N[C@H](C(=O)N[C@@H](Cc1c[nH]c2ccccc12)C(=O)N[C@@H](CO)C(=O)NC(C)(C)C(=O)N[C@@H](CCCNC(=N)N)C(=O)N[C@@H](CCCCN)C(=O)N[C@@H](CCCCNC(C)=O)C(N)=O)[C@@H](C)O)C(=O)O)C(=O)O)C(=O)O` [compound 4] (Ac-LEGREKVRAK(Ac)I[Aib][Aib]EGK([Suc-X2])STWS[Aib]RKK(Ac)-NH2), in “in vivo” (iv, 1 mg/kg), the C0 came out at 2750 nM and the half-life was 8.71 h. Also, in “in vivo”, the bioavailability was 69%, the Cmax was found to be 1990 nM and the Tmax worked out at 8 h. On RXFP1, this molecule yielded a 50% effective concentration (EC50) of 1.5 nM and an Emax of 89%. In addition, the solubility in data set [1] (setting [2]) was determined as 9.63 mg/mL (≈ 2350 µM). The solubility in data set [1] (setting [3]) was found to be 7.71 mg/mL (≈ 1880 µM).

(Values after patent US11725036B2, “Modified lipidated relaxin B chain peptides and their therapeutic use” (Sanofi, priority 2018, dated 2023).)
